Where two headings read alike, the source gives them in different places.
Tests used:
BTK [1] = target: T1, BTK (Homo sapiens (Human), UniProt Q06187); assay: Btk kinase assay (HTRF); type: biochemical
Description: Btk Kinase Assay and Other Kinases Assay Btk kinase activity was determined using a homogenous time resolved fluorescence (HTRF) methodology. Measurements were performed in a reaction volume of 15 μL using 384-well assay plates. Kinase enzyme, inhibitor, ATP and 1 μM peptide substrate were incubated in a reaction buffer compose of Hepes 50 mM (pH7.0), NaN3 0.02%, BSA 0.01%, Orthocanadate 0.1 mM. […] For each compound, enzyme activity as measured at various concentrations of compound, Negative control reactions were performed in the absence of inhibitor in two replicates and eight no enzyme controls were used to determine baseline fluorescence levels.
Target sequence in this assay (Q06187 whole entry, species assumed): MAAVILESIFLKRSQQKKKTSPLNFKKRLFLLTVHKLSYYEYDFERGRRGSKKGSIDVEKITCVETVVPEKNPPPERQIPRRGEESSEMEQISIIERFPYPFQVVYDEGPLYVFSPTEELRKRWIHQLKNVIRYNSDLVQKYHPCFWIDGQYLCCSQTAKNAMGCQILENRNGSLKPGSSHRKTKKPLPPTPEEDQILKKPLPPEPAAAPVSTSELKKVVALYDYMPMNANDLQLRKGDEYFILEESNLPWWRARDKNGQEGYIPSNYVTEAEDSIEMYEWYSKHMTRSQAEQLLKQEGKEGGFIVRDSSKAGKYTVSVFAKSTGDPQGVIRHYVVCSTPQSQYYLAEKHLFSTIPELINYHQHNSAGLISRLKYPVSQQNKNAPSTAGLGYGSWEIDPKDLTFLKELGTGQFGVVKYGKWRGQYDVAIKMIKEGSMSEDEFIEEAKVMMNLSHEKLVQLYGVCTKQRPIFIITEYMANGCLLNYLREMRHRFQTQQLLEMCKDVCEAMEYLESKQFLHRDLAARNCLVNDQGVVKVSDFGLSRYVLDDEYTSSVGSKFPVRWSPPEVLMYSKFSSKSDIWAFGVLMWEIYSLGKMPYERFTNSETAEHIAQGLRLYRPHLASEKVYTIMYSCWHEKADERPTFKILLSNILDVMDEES

BTK [2] = target: T1, BTK; assay: Btk occupancy in cellular assays (PCI-33380 labeling, Jeko-1 cells); type: cell-based; details: 1.5 h pre-incubation with compound, PCI-33380 5 μM 1 h
Description: Btk Occupancy in Cellular Assays
For PCI-33380 labeling of human B cells, 10^6 Jeko-1 cells were pre-incubated with compound for 1.5 h before labeling. Then cells were treated with PCI-33380 at 5 μM for 1 h. Washed, lysed in Ripa buffer containing sample reducing agent, and analyzed by SDS/PAGE and fluorescent gel scanning using a Typhoon scanner 9500 (GE Healthcare) (Ex, 532 nm; Em, 555 nm). The gel was then blotted and total Btk levels detected by standard Western blot with Btk antibody (CST).
Target sequence in this assay (Q06187 whole entry): as the sequence (Q06187 whole entry, species assumed) above

[3] = [ATP]=80 μM, BTK=3.4 nM, read-out: BTK Inhibition

| Structure (SMILES) | IC50 (BTK [1]; [3]) [µM] | concentration sufficient to fully occupy the active site of Btk (BTK [2]) [nM] | IC50 (BTK [1]) [µM] |
| --- | --- | --- | --- |
| C=CC(=O)N1CC[C@@H](n2nc(-c3ccc(Oc4cccc(OC)c4Cl)cc3)c3cncc(OC)c32)C1 [Compound 69, (R)-1-(3-(3-(4-(2-chloro-3-methoxyphenoxy)phenyl)-7-methoxy-1H-pyrazolo[4,3-c]pyridin-1-yl)pyrrolidin-1-yl)prop-2-en-1-one] | < 0.01 | 100 |  |
| C=CC(=O)N1CCC[C@@H](n2nc(-c3ccc(Oc4cccc(OC)c4F)cc3)c3cncc(OCCC)c32)C1 [Compound 77, (R)-1-(3-(3-(4-(2-fluoro-3-methoxyphenoxy)phenyl)-7-propoxy-1H-pyrazolo[4,3-c]pyridin-1-yl)piperidin-1-yl)prop-2-en-1-one] | < 0.01 | 25 |  |
| C=CC(=O)N1CCC[C@@H](n2nc(-c3ccc(Oc4cccc(OC)c4F)cc3)c3c(C)nccc32)C1 [Compound 78, (R)-1-(3-(3-(4-(2-fluoro-3-methoxyphenoxy)phenyl)-4-methyl-1H-pyrazolo[4,3-c]pyridin-1-yl)piperidin-1-yl)prop-2-en-1-one] | < 0.01 | 50 |  |
| C=CC(=O)N1CCC[C@@H](n2nc(-c3ccc(OCc4ccccc4F)cc3)c3cnccc32)C1 [Compound 101, (R)-1-(3-(3-(4-((2-fluorobenzyl)oxy)phenyl)-1H-pyrazolo[4,3-c]pyridin-1-yl)piperidin-1-yl)prop-2-en-1-one] | 0.01 to 0.1 |  |  |
| C=CC(=O)N1CCC[C@@H](n2nc(-c3ccc(COc4ccccc4)cc3)c3ccccc32)C1 [Compound 102, (R)-1-(3-(3-(4-(phenoxymethyl)phenyl)-1H-indazol-1-yl)piperidin-1-yl)prop-2-en-1-one] |  |  | 0.01 to 0.1 |
| C=CC(=O)N1CC[C@@H](n2nc(-c3ccc(C(=O)NCc4cccc(OC)c4)cc3)c3cnccc32)C1 [Compound 103, (R)-4-(1-(1-acryloylpyrrolidin-3-yl)-1H-pyrazolo[4,3-c]pyridin-3-yl)-N-(3-methoxybenzyl)benzamide] | 0.1 to 1 |  |  |
| C=CC(=O)N1CCC[C@@H](n2nc(-c3ccc(C(=O)NCc4cccc(OC)c4)cc3)c3cnccc32)C1 [Compound 104, (R)-4-(1-(1-acryloylpiperidin-3-yl)-1H-pyrazolo[4,3-c]pyridin-3-yl)-N-(3-methoxybenzyl)benzamide] | 0.1 to 1 |  |  |
| CC#CC(=O)N1CCC[C@@H](n2nc(-c3ccc(C(=O)Nc4ccccn4)cc3)c3cnccc32)C1 [Compound 105, (R)-4-(1-(1-(but-2-ynoyl)piperidin-3-yl)-1H-pyrazolo [4,3-c]pyridin-3-yl)-N-(pyridin-2-yl)benzamide] | 0.1 to 1 |  |  |
| C=CC(=O)N1CC[C@@H](n2nc(-c3ccc(-c4cccc(C)c4)cc3)c3cnccc32)C1 [Compound 107, (R)-1-(3-(3-(3′-methyl-[1,1′-biphenyl]-4-yl)-1H-pyrazolo[4,3-c]pyridin-1-yl)pyrrolidin-1-yl)prop-2-en-1-one] | 0.01 to 0.1 |  |  |
| C=CC(=O)N1CC[C@@H](n2nc3ccncc3c2-c2ccc(-c3cccc(C)c3)cc2)C1 [Compound 108, (R)-1-(3-(3-(3′-methyl-[1,1′-biphenyl]-4-yl)-2H-pyrazolo[4,3-c]pyridin-2-yl)pyrrolidin-1-yl)prop-2-en-1-one] | 0.1 to 1 |  |  |
| C=CC(=O)N1CCC[C@@H](n2nc(-c3ccc(N4CCC(N5CCCCC5)CC4)cc3)c3cnccc32)C1 [Compound 110, (R)-1-(3-(3-(4-([1,4′-bipiperidin]-1′-yl)phenyl)-1H-pyrazolo [4,3-c]pyridin-1-yl)piperidin-1-yl)prop-2-en-1-one] | 0.01 to 0.1 |  |  |
| COc1cccc(Oc2ccc(-c3nn([C@@H]4CCCC(C(=O)O)C4)c4c(OC)cncc34)cc2)c1F (stereo partly drawn) [Compound 121, (3R)-3-(3-(4-(2-fluoro-3-methoxyphenoxy)phenyl)-7-methoxy-1H-pyrazolo[4,3-c]pyridin-1-yl)cyclohexanecarboxylic acid] |  |  | 0.01 to 0.1 |

Continued, in another order:

| IC50 (BTK [1]; [3]) [µM] | concentration sufficient to fully occupy the active site of Btk (BTK [2]) [nM] | Structure (SMILES) | IC50 (BTK [1]) [µM] |
| --- | --- | --- | --- |
| 0.1 to 1 |  | C=CC(=O)N1CC[C@@H](n2nc(-c3ccc(N4CCN(C)CC4)cc3)c3cnccc32)C1 [Compound 112, (R)-1-(3-(3-(4-(4-methylpiperazin-1-yl)phenyl)-1H-pyrazolo [4,3-c]pyridin-1-yl)pyrrolidin-1-yl)prop-2-en-1-one] |  |
| 1 to 10 |  | C=CC(=O)N1CCC[C@@H](n2nc(Nc3ccc(N4CCN(C)CC4)cc3)c3cnccc32)C1 [Compound 114, (R)-1-(3-(3-((4-(4-methylpiperazin-1-yl)phenyl)amino)-1H-pyrazolo[4,3-c]pyridin-1-yl)piperidin-1-yl)prop-2-en-1-one] |  |
| 0.1 to 1 |  | C=CC(=O)N1CCC[C@@H](n2nc(-c3ccc(N4CCN(S(C)(=O)=O)CC4)cc3)c3cnccc32)C1 [Compound 115, (R)-1-(3-(3-(4-(4-(methylsulfonyl)piperazin-1-yl)phenyl)-1H-pyrazolo[4,3-c]pyridin-1-yl)piperidin-1-yl)prop-2-en-1-one] |  |
| 0.01 to 0.1 |  | C=CC(=O)N1CCC(n2nc(-c3ccc(NC(=O)c4cccc(C(F)(F)F)c4)cc3)c3cnccc32)C1 (centres unmarked) [Compound 116, N-{4-[1-(1-Acryloyl-pyrrolidin-3-yl)-1H-pyrazolo[4,3-c]pyridin-3-yl]-phenyl}-3-trifluoromethyl-benzamide] |  |
| 0.01 to 0.1 |  | C=CC(=O)N1CCC[C@@H](n2nc(-c3ccc(NC(=O)c4cccc(C(F)(F)F)c4)cc3)c3cnccc32)C1 [Compound 117, (R)-N-(4-(1-(1-acryloylpiperidin-3-yl)-1H-pyrazolo[4,3-c]pyridin-3-yl)phenyl)-3-(trifluoromethyl)benzamide] |  |
| 0.01 to 0.1 |  | COc1cccc(Oc2ccc(-c3nn([C@@H]4CCCN(C(=O)C(C)O)C4)c4c(OC)cncc34)cc2)c1F (stereo partly drawn) [Compound 118, 1-((R)-3-(3-(4-(2-fluoro-3-methoxyphenoxy)phenyl)-7-methoxy-1H-pyrazolo[4,3-c]pyridin-1-yl)piperidin-1-yl)-2-hydroxypropan-1-one] |  |
| 0.01 to 0.1 |  | COc1cccc(Oc2ccc(-c3nn([C@@H]4CCCN(C(=O)C(=O)O)C4)c4c(OC)cncc34)cc2)c1F [Compound 119, (R)-2-(3-(3-(4-(2-fluoro-3-methoxyphenoxy)phenyl)-7-methoxy-1H-pyrazolo[4,3-c]pyridin-1-yl)piperidin-1-yl)-2-oxoacetic acid] |  |
| 0.01 to 0.1 |  | COc1cccc(Oc2ccc(-c3nn([C@@H]4CCCN(C(=O)C(N)=O)C4)c4c(OC)cncc34)cc2)c1F [Compound 120, (R)-2-(3-(3-(4-(2-fluoro-3-methoxyphenoxy)phenyl)-7-methoxy-1H-pyrazolo[4,3-c]pyridin-1-yl)piperidin-1-yl)-2-oxoacetamide] |  |
| < 0.01 |  | COc1cccc(Oc2ccc(-c3nn(C4CCC(C(=O)O)CC4)c4c(OC)cncc34)cc2)c1F (centres unmarked) [Compound 122, 4-(3-(4-(2-fluoro-3-methoxyphenoxy)phenyl)-7-methoxy-1H-pyrazolo[4,3-c]pyridin-1-yl)cyclohexanecarboxylic acid] |  |
| > 10 |  | O=C(Nc1ccc(-c2nn(C3CCC(C(=O)O)CC3)c3ccncc23)cc1)c1ccccc1 (centres unmarked) [Compound 123, 4-(3-(4-benzamidophenyl)-1H-pyrazolo[4,3-c]pyridin-1-yl)cyclohexanecarboxylic acid] |  |
| > 10 |  | O=C(O)C1CCC(n2nc(-c3ccc(-c4ccccc4)cc3)c3cnccc32)CC1 (centres unmarked) [Compound 124, 4-(3-([1,1′-biphenyl]-4-yl)-1H-pyrazolo[4,3-c]pyridin-1-yl)cyclohexanecarboxylic acid] |  |
